In US20130079348A1, “COMPOUNDS THAT MODULATE INTRACELLULAR CALCIUM” (CalciMedica, Inc., priority 2010, published 2013):

How the values were obtained:
[1] = biological target: STIM1 and Orai1 in HEK293 cells (Homo sapiens, UniProt Q96D31); details: HEK293 cells expressing STIM1 and Orai1; cited from earlier work
Jurkat cells = details: cited from earlier work
[2] = biological target: T1, recombinant human STIM1 and Orai1 (HEK-293 cells) (Homo sapiens, UniProt Q96D31); experiment: Fluorescence-based assay of store-operated calcium entry in Orai1/STIM1 stable cells; format: cell-based; details: concentration that inhibited 50% of the Peak-Basal fluorescence signal; 30 min compound incubation; read-out: IC50(μM) JR251
T1 construct: c-myc (C); expressed in transfected cells; host or cells: HEK-293
Experimental: A. Fluorescence-based Assay of Store-Operated Calcium Entry in Orai1/STIM1 Stable Cells.
Cells stably expressing recombinant human STIM1 and Orai1 were generated by transfecting a human Orai1 expression plasmid (pcDNA3.1-Orai1-cmyc) into HEK-293 cells stably overexpressing human STIM1 (Roos et al. 2005 JCB 169(3): 435-445). Colonies of cells stably expressing both STIM1 and Orai1 proteins were selected and then subcloned by limiting dilution. Cells were cultured at 37° C./6% CO2 in complete medium with 10% FBS and appropriate selection markers.
The day prior to performing the assay Orai1/STIM1 stable cells were plated in 50 μL of complete medium at 90-95% confluence in a 384 well plate. Cells were grown at 37° C./6% CO2 overnight. On the day of the assay, 1.5 μM fluo-4-AM (Invitrogen) in complete medium was added to the cells, which were then incubated for 1 hour at RT. Cells were washed once in Ca^2+-free HBSS (Hank's buffered saline solution) and 35 μl of Ca^2+-free HBSS was added to each well. Test compounds were added to wells in a 10 μL Ca^2+-free HBSS solution, prepared at 4.5× the desired final concentration, and incubated for 30 minutes at RT. The initial baseline fluorescence signal was then measured with a FLIPR^384 (Molecular Devices) plate reader. Calcium entry was initiated by adding 5 μl of 10× CaCl2 (10 mM) in HBSS, and changes in cellular fluorescence were measured with the FLIPR^384 plate reader. In each well, the magnitude of the fluorescence signal as a result of calcium entry into the cell was determined by calculating the difference between the peak fluorescence signal measured after calcium addition and the initial baseline fluorescence signal (designated Peak-Basal). IC50 values were typically calculated as the concentration that inhibited 50% of the Peak-Basal signal (Table A).

RBL-2H3 cells = experiment: Fluorescence-based assay of store-operated calcium entry in RBL-2H3 cells; format: cell-based; details: Rattus norvegicus, thapsigargin store depletion, 50% of the Upslope inhibited
Experimental: B. Fluorescence-based Assay of Store-Operated Calcium Entry in RBL-2H3 Cells.
RBL-2H3 cells were obtained from ATCC and maintained in complete medium with 10% FBS at 37° C./6% CO2.
The day prior to performing the assay, RBL-2H3 cells are plated in 50 μL of complete medium in a 384 well plate. Cells are grown at 37° C./6% CO2 overnight and grow to 50-60% confluence by the next day. On the assay day, 1.5 μM Fluo-4-AM dye (Invitrogen) in complete medium is added and incubated for 1 hour at RT. Cells are washed twice in Ca^2+-free HBSS buffer and 35 μL Ca^2+-free HBSS buffer is added to each well. 10 μL of a test compound prepared in a Ca^2+-free HBSS solution at 4.5× of the desired concentration is added to a well and incubated for 5 minutes at RT. 10 μL of thapsigargin prepared in a Ca^2+-free HBSS solution at 5.5× of the desired concentration (5.5 uM) is added to each well and incubated for an additional 25 minutes. The initial baseline fluorescence signal is measured with a FLIPR^384 (Molecular Devices) plate reader. 5 μL of 12× calcium in HBSS (12 mM) is added and changes in cellular fluorescence are measured with the FLIPR^384 plate reader. In each well, the change in the fluorescent signal as a function of time due to calcium entry into the cell is determined by calculating the difference between the fluorescent signal measured 7 seconds after calcium addition and the initial baseline fluorescence signal at time zero (t=0). This parameter is designated Upslope. The IC50 value is calculated as the concentration at which 50% of the Upslope is inhibited.

T1 sequence (Q96D31 whole entry): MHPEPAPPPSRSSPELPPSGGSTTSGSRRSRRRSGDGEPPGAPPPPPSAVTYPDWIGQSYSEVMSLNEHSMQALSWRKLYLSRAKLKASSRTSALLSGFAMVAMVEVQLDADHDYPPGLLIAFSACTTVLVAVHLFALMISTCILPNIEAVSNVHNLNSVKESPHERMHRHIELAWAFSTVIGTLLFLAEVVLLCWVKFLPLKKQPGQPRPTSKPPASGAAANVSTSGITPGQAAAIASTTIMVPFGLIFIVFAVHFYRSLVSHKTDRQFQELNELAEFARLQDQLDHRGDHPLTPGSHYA
Sequence of STIM1 and Orai1 in HEK293 cells (Q96D31 whole entry): as above

| IC50 [2] [µM] | IC50 (RBL-2H3 cells) [µM] | Compound | other results |
| --- | --- | --- | --- |
| ≤ 0.5 | ≤ 0.5 | Cc1ccc(-c2scc(NC(=O)c3cc4c(F)cccn4n3)c2C(=O)O)c(F)c1 [Compound 1] |  |
|  | ≤ 0.5 | Cc1ccc(-c2csc(NC(=O)c3cc4cccc(C)n4n3)c2C(=O)O)c(F)c1F [Compound 3] |  |
|  | 1 to 10 | Cc1ccc(-c2csc(NC(=O)c3nn4ccccc4c3N)c2C(=O)O)c(F)c1F [Compound 4] |  |
|  | 0.5 to 1 | Cc1ccc(-c2csc(NC(=O)c3cc4c(F)cc(F)cn4n3)c2C(=O)O)c(F)c1F [Compound 6] |  |
|  | 0.5 to 1 | COc1cccn2nc(C(=O)Nc3scc(-c4ccc(Cl)cc4)c3C(=O)O)cc12 [Compound 7] |  |
| ≤ 0.5 | ≤ 0.5 | Cc1ccc(-c2csc(NC(=O)c3nc4ccc(F)cc4s3)c2C(=O)O)c(F)c1F [Compound 11] |  |
| 0.5 to 1 | ≤ 0.5 | Cc1ccc(-c2csc(NC(=O)c3nc4ccc(F)cc4s3)c2C(=O)O)c(F)c1 [Compound 12] |  |
| 0.5 to 1 | ≤ 0.5 | O=C(Nc1scc(-c2ccc(Cl)cc2F)c1C(=O)O)c1nc2c(F)cccc2s1 [Compound 13] |  |
|  | ≤ 0.5 | Cc1ccc(-c2csc(NC(=O)c3nc4ccc(Br)cc4s3)c2C(=O)O)c(F)c1F [Compound 16] |  |
| 0.5 to 1 | ≤ 0.5 | Cc1ccc(-c2csc(NC(=O)c3nc4cccc(N)c4s3)c2C(=O)O)c(F)c1F [Compound 18] |  |
| 0.5 to 1 | ≤ 0.5 | COc1ccc2sc(C(=O)Nc3scc(-c4ccc(Cl)cc4)c3C(=O)O)nc2c1 [Compound 19] |  |
| ≤ 0.5 | 0.5 to 1 | COc1cccc2sc(C(=O)Nc3scc(-c4ccc(Cl)cc4)c3C(=O)O)nc12 [Compound 20] |  |
| 0.5 to 1 | 1 to 10 | Cc1ccc(-c2csc(NC(=O)c3nc4cccc(O)c4s3)c2C(=O)O)c(F)c1F [Compound 25] |  |
| ≤ 0.5 | ≤ 0.5 | Cc1ccc(-c2csc(NC(=O)c3c(O)ccc(F)c3F)c2C(=O)O)c(F)c1F [Compound 26] |  |
| ≤ 0.5 | ≤ 0.5 | Cc1ccc(-c2csc(NC(=O)c3cc(F)cc(F)c3O)c2C(=O)O)c(F)c1F [Compound 27] |  |
| ≤ 0.5 | ≤ 0.5 | O=C(O)c1c(-c2ccc(Cl)cc2)csc1NC(=O)N1Cc2cccc(F)c2C1 [Compound 28] |  |
| ≤ 0.5 | ≤ 0.5 | Cc1ccc(-c2csc(NC(=O)c3ccc(F)c(F)c3O)c2C(=O)O)c(F)c1F [Compound 29] |  |

The next lines start with the compound.

| Compound | IC50 [2] [µM] | IC50 (RBL-2H3 cells) [µM] | other results |
| --- | --- | --- | --- |
| NCCOB(c1ccccc1)c1ccccc1 [2-aminoethoxydiphenylborate] |  |  | block of store-operated Ca2+ entry [1]: completely blocked |
| Cc1nnsc1C(=O)Nc1ccc(-n2nc(C(F)(F)F)cc2C(F)(F)F)cc1 [BTP-2] |  |  | inhibition of proliferation (Jurkat cells; Jurkat cells and colon cancer cells): inhibits; inhibition of SOCE (Jurkat cells; Jurkat cells): inhibits |
| Cc1ccc(-c2csc(NC(=O)c3cc4cccc(C)n4n3)c2C(=O)O)c(F)c1 [Compound 2] | ≤ 0.5 | ≤ 0.5 |  |
| O=C(Nc1scc(-c2ccc(Cl)cc2)c1C(=O)O)c1cc2c(F)cc(F)cn2n1 [Compound 5] | 1 to 10 | 0.5 to 1 |  |
| Cc1ccc(-c2csc(NC(=O)c3cc4ccc(F)cn4n3)c2C(=O)O)c(F)c1F [Compound 8] |  | 0.5 to 1 |  |
| COc1cccc2cc(C(=O)Nc3scc(-c4ccc(Cl)cc4)c3C(=O)O)nn12 [Compound 9] | 0.5 to 1 | 1 to 10 |  |
| COc1cccn2nc(C(=O)Nc3scc(-c4ccc(C)c(F)c4F)c3C(=O)O)cc12 [Compound 10] |  | 0.5 to 1 |  |
| Cc1ccc(-c2csc(NC(=O)c3nc4c(F)cccc4s3)c2C(=O)O)c(F)c1 [Compound 14] | 0.5 to 1 | 0.5 to 1 |  |
| Cc1ccc(-c2csc(NC(=O)c3nc4cc(C(F)(F)F)ccc4s3)c2C(=O)O)c(F)c1F [Compound 15] |  | 0.5 to 1 |  |
| Nc1cccc2nc(C(=O)Nc3scc(-c4ccc(Cl)cc4)c3C(=O)O)sc12 [Compound 17] | ≤ 0.5 | ≤ 0.5 |  |
| O=C(Nc1scc(-c2ccc(Cl)cc2)c1C(=O)O)c1nc2cccc(Cl)c2s1 [Compound 21] | 0.5 to 1 | ≤ 0.5 |  |
| Cc1ccc(-c2csc(NC(=O)c3nc4cccc(Cl)c4s3)c2C(=O)O)c(F)c1F [Compound 22] | 0.5 to 1 | ≤ 0.5 |  |
| Cc1ccc(-c2csc(NC(=O)c3sc4ccccc4[n+]3[O-])c2C(=O)O)c(F)c1F [Compound 23] | 0.5 to 1 | ≤ 0.5 |  |
| CC(=O)Nc1cccc2nc(C(=O)Nc3scc(-c4ccc(Cl)cc4)c3C(=O)O)sc12 [Compound 24] | 1 to 10 | 0.5 to 1 |  |
